Patent publication US20210346368A1, “ANTIBIOTIC SOLUTION AND METHOD OF INJECTION TO PREVENT OPHTHALMIC INFECTIONS” (priority 2017, published 2021)

Experiment: injection of moxifloxacin antibiotic solution into the anterior segment of the eye during surgery to prevent endophthalmitis
Assay type: in vivo
Description: Further details regarding the structure, preparation, and physical properties of moxifloxacin are provided in U.S. Pat. Nos. 4,990,517 and 5,607,942, and German application DE19937116, all of which are incorporated herein by reference. In one embodiment, the antibiotic solution may comprise […] of cyanocobalamin, or an amount sufficient to tint or color the resulting antibiotic solution. The antibiotic solution may further comprise any suitable carrier fluid (e.g., liquid diluents such as water, ethyl alcohol, or propylene glycol), so long as the resulting solution has osmotic values that are compatible with the aqueous humor of the eye and ophthalmic tissues. In one embodiment, the antibiotic solution is prepared and stored in a single-dose vial, without the need for preservatives. This allows the surgeon to provide an accurate concentration in sterile environments. Further, due to the antibiotic solution comprising cyanocobalamin, the resulting antibiotic solution is red in color. This provides a visual enhancement to the surgeon when injecting into the eye. For example, a surgeon would inject around 0.3 milliliters of the antibiotic solution (e.g., solution comprising moxifloxacin and cyanocobalamin) into the anterior segment of the eye during the intraoperative portion of cataract surgery. […]

**Q.** With `COc1c(N2C[C@@H]3CCCN[C@@H]3C2)c(F)cc2c(=O)c(C(=O)O)cn(C3CC3)c12` [moxifloxacin] as the molecule, how does the “effectiveness (preliminary results)” value (200 micrograms to 600 micrograms of moxifloxacin injected into the eye) read?
**A.** Its value is “effective”.

**Q.** What about the risk of endophthalmitis (moxifloxacin injected into the anterior segment of the eye) of the same molecule?
**A.** The risk of endophthalmitis was “significantly reduced or eliminated altogether”.
